Assay results taken from patent EP1247803A2, “Indolinone compounds suitable for modulation of protein kinases” (Sugen, Inc., priority 1996, dated 1998).

Tests used:
PDGF-R = PDGF-R (Homo sapiens, UniProt P09619); assay: PDGF-R ELISA; type: cell-based
From the text: A PDGF-R ELISA is described in International Patent Publication No. WO 96/40116, published December 19, 1996 by Tang et al.

FLK-1 receptor = target: T1, FLK-1 receptor (Mus musculus, UniProt P35918); assay: FLK-1 ELISA (kinase activity of the FLK-1 receptor in FLK-1/NIH3T3 cells, VEGF stimulated); type: cell-based
T1 construct: expressed in transfected cells; host or cells: NIH3T3 C7#3
T1 sequence (P35918 20-1345): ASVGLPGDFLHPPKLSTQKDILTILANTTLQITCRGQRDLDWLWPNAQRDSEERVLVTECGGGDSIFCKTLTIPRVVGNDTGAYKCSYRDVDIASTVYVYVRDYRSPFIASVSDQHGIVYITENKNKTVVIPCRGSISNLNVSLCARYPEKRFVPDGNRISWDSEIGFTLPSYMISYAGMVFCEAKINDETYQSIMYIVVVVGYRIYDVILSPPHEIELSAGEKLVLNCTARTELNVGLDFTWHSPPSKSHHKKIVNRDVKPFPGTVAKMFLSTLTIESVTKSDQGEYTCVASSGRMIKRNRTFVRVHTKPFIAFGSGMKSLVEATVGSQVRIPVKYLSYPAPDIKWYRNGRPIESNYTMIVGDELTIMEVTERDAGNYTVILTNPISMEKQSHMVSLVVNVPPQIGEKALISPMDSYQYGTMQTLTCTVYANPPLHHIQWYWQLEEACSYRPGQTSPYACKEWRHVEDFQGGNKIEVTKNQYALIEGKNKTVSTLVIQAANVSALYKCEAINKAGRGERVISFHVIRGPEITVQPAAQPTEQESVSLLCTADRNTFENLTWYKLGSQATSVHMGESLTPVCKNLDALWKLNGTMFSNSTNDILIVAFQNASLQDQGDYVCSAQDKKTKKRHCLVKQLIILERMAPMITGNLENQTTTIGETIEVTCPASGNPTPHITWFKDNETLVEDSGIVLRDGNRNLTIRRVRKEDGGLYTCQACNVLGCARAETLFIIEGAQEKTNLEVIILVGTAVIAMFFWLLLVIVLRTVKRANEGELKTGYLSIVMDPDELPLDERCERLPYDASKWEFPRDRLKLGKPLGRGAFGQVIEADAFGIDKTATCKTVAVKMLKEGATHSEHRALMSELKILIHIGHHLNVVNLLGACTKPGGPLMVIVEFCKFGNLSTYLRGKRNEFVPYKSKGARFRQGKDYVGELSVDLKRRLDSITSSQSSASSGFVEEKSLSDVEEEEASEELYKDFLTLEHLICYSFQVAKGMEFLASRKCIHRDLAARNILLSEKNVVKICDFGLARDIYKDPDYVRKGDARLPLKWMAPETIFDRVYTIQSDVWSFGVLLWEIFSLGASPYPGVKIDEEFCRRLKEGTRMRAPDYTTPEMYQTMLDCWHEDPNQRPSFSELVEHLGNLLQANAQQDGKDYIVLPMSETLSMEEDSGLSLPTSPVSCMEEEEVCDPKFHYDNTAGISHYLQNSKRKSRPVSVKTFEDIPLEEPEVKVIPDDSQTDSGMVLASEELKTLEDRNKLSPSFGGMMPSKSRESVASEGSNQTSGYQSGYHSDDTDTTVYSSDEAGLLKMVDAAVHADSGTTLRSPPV
In short: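 FLK-1-expressing NIH3T3 C7#3 cells, starved overnight in 0.1% FBS medium, were treated with compounds at a 1:200 final dilution (0.5% DMSO) for 2 h at 37 °C, with VEGF stimulation. FLK-1 kinase activity was read by ELISA on anti-rabbit IgG plates using affinity-purified anti-FLK-1 antiserum.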

PDGF-R, sequence (P09619 33-1106, species assumed): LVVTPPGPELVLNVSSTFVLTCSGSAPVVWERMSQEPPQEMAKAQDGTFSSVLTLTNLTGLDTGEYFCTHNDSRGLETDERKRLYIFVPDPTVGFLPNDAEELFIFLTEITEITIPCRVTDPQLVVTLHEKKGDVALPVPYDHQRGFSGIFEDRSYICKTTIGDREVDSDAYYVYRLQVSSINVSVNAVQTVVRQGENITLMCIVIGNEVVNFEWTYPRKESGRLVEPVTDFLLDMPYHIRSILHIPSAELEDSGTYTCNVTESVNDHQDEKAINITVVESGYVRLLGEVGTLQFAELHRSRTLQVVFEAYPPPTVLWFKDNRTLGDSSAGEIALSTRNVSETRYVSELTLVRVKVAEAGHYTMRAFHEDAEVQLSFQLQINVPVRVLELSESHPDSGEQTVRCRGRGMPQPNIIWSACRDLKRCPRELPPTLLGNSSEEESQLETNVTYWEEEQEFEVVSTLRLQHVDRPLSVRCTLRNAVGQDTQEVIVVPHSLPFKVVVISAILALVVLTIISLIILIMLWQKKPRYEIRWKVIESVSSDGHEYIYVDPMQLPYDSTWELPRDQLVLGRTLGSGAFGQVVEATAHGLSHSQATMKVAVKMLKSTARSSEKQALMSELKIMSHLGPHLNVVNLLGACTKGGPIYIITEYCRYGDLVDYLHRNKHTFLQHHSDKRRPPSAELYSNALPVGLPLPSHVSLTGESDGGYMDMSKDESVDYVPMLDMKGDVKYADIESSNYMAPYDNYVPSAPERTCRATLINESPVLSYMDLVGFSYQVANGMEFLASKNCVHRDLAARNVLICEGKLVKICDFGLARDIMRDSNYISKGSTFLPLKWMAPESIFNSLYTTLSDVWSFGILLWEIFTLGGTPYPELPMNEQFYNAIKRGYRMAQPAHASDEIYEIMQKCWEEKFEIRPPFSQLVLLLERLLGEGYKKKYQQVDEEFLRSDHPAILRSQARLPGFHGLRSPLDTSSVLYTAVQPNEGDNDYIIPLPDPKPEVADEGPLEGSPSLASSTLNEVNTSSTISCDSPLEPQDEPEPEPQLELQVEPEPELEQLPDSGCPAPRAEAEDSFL

SMILES	PDGF Kinase %Inhibition (PDGF-R)	Fik Kinase %Inhibition (FLK-1 receptor)
CNS(=O)(=O)c1ccc2c(c1)C(=Cc1ccc([N+](=O)[O-])cc1)C(=O)N2 [10734/D06]	-9.1%	0.0%
Cc1cc(C=C2C(=O)Nc3ccc(CCCl)cc32)cc(C)c1OCc1ccccc1 [10733/G07]	-6.8%	19.5%
Cc1c(Br)ccc2c1C(=Cc1ccc(Br)s1)C(=O)N2 [10734/C11]	9.1%	6.3%
CCN(CC)c1ccc(C=C2C(=O)Nc3ccc(I)cc32)c(O)c1 [10734/B05]	56.3%	-2.3%
Cc1c(Br)ccc2c1C(=Cc1ccc(C(C)(C)C)cc1)C(=O)N2 [10734/C10]	17.4%	10.1%
O=C1Nc2ccc(S(=O)(=O)N3CCOCC3)cc2C1=Cc1cc(Br)ccc1O [10733/F09]	-0.3%	-2.1%
CNS(=O)(=O)c1ccc2c(c1)C(=Cc1ccc(Br)s1)C(=O)N2 [10734/D11]	17.0%	9.8%
CC(C)(C)c1cc(C=C2C(=O)Nc3ccc(CCCl)cc32)cc(C(C)(C)C)c1OCc1ccccc1 [10733/G05]	-1.1%	19.2%
CC(C)(C)c1ccc(C=C2C(=O)Nc3c(Br)cc(Br)cc32)cc1 [10734/A10]	26.3%	4.4%
O=C1Nc2ccc(S(=O)(=O)Nc3ccc(C(F)(F)F)cc3)cc2C1=Cc1cc(Cl)cc(Cl)c1O [10734/E03]	27.2%	26.9%
Cc1c(Br)ccc2c1C(=Cc1cc(Cl)ccc1O)C(=O)N2 [10734/C04]	24.5%	-37.6%
O=C1Nc2ccc(S(=O)(=O)Nc3ccc(C(F)(F)F)cc3)cc2C1=Cc1ccc(Cl)c([N+](=O)[O-])c1 [10718/E08]	–	9.2%
COc1c(C(C)(C)C)cc(C=C2C(=O)Nc3ccc(CCCl)cc32)cc1C(C)(C)C [10733/G04]	11.9%	11.5%
O=C1Nc2ccc(I)cc2C1=Cc1cc(Cl)ccc1O [10734/B04]	14.4%	2.8%
CNS(=O)(=O)c1ccc2c(c1)C(=Cc1ccc(C(C)(C)C)cc1)C(=O)N2 [10734/D10]	9.9%	11.1%
Cc1cc(C=C2C(=O)Nc3ccc(S(=O)(=O)Nc4ccc(C(F)(F)F)cc4)cc32)cc(C)c1OCc1ccccc1 [10733/E07]	29.3%	13.2%
Cc1c(Br)ccc2c1C(=Cc1cccc(F)c1O)C(=O)N2 [10734/C08]	5.5%	-34.2%
CCN(CC)c1ccc(C=C2C(=O)Nc3c(Br)cc(Br)cc32)c(O)c1 [10734/A05]	2.9%	9.1%
O=C1Nc2c(Br)cc(Br)cc2C1=Cc1ccc(O)c(Br)c1 [10734/A09]	-9.5%	-7.9%
O=C1Nc2ccc(I)cc2C1=Cc1cccc(F)c1O [10734/B08]	-2.4%	-0.5%

SMILES	PDGF Kinase %Inhibition (PDGF-R)	Fik Kinase %Inhibition (FLK-1 receptor)
Cc1cc(C=C2C(=O)Nc3ccc(S(=O)(=O)N4CCOCC4)cc32)cc(C)c1OCc1ccccc1 [10733/F07]	1.7%	16.4%
Cc1c(Br)ccc2c1C(=Cc1ccc(O)c(Br)c1)C(=O)N2 [10734/C09]	11.3%	-13.3%
O=C1Nc2ccc(S(=O)(=O)Nc3ccc(C(F)(F)F)cc3)cc2C1=Cc1ccco1 [10718/E10]	–	15.2%
CCN(CC)c1ccc(C=C2C(=O)Nc3ccc(Br)c(C)c32)c(O)c1 [10734/C05]	3.8%	-10.3%
O=C1Nc2ccc(CCCl)cc2C1=Cc1cc(Br)ccc1O [10733/G09]	-17.0%	77.8%
CNS(=O)(=O)c1ccc2c(c1)C(=Cc1cc(Br)cc(Br)c1O)C(=O)N2 [10734/D07]	28.1%	14.7%
COc1cc(Br)cc(C=C2C(=O)Nc3ccc(S(=O)(=O)N4CCOCC4)cc32)c1O [10733/F08]	-32.4%	-13.2%
O=C1Nc2ccc(I)cc2C1=Cc1cc(Br)cc(Br)c1O [10734/B07]	18.8%	9.1%
O=C1Nc2c(Br)cc(Br)cc2C1=Cc1ccc(Br)s1 [10734/A11]	5.5%	6.3%
COc1c(O)ccc(C=C2C(=O)Nc3ccc(CCCl)cc32)c1[N+](=O)[O-] [10733/G11]	-4.4%	3.3%
O=C1Nc2c(Br)cc(Br)cc2C1=Cc1cc(Br)cc(Br)c1O [10734/A07]	21.9%	-9.4%
CCN(CC)c1ccc(C=C2C(=O)Nc3ccc(S(=O)(=O)NC)cc32)c(O)c1 [10734/D05]	8.2%	2.4%
CNS(=O)(=O)c1ccc2c(c1)C(=Cc1cccc(F)c1O)C(=O)N2 [10734/D08]	2.0%	2.5%
CNS(=O)(=O)c1ccc2c(c1)C(=Cc1cc(Cl)ccc1O)C(=O)N2 [10734/D04]	13.5%	6.1%
CNS(=O)(=O)c1ccc2c(c1)C(=Cc1ccc(O)c(Br)c1)C(=O)N2 [10734/D09]	42.2%	-11.6%
CC(C)(C)c1cc(C=C2C(=O)Nc3ccc(S(=O)(=O)Nc4ccc(C(F)(F)F)cc4)cc32)cc(C(C)(C)C)c1OCc1ccccc1 [10733/E05]	-33.2%	10.6%
CCOc1cccc(C=C2C(=O)Nc3ccc(S(=O)(=O)Nc4ccc(C(F)(F)F)cc4)cc32)c1O [10734/E02]	50.1%	7.9%
COc1c(O)ccc(C=C2C(=O)Nc3ccc(S(=O)(=O)N4CCOCC4)cc32)c1[N+](=O)[O-] [10733/F11]	-17.8%	4.1%
CCOc1cccc(C=C2C(=O)Nc3ccc(S(=O)(=O)NC)cc32)c1O [10734/D02]	6.4%	-11.5%
O=C1Nc2ccc(I)cc2C1=Cc1ccc(Br)s1 [10734/B11]	-5.5%	12.6%

SMILES	PDGF Kinase %Inhibition (PDGF-R)	Fik Kinase %Inhibition (FLK-1 receptor)
CC(C)(C)c1cc(C=C2C(=O)Nc3ccc(S(=O)(=O)N4CCOCC4)cc32)cc(I)c1OCc1ccccc1 [10733/F02]	3.8%	-15.7%
O=C1Nc2ccc(S(=O)(=O)Nc3ccc(C(F)(F)F)cc3)cc2C1=Cc1ccc([N+](=O)[O-])o1 [10718/E11]	–	12.1%
COc1c([N+](=O)[O-])cc(C=C2C(=O)Nc3ccc(S(=O)(=O)Nc4ccc(C(F)(F)F)cc4)cc32)cc1C(C)(C)C [10733/E03]	43.1%	42.6%
COc1cc(Br)cc(C=C2C(=O)Nc3ccc(CCCl)cc32)c1O [10733/G08]	68.7%	2.5%
CCOC(=O)CCc1c(C(=O)OCC)[nH]c(C=C2C(=O)Nc3ccc(S(=O)(=O)Nc4ccc(C(F)(F)F)cc4)cc32)c1CC(=O)OCC [10718/E05]	–	16.1%
O=C1Nc2ccc(S(=O)(=O)Nc3ccc(C(F)(F)F)cc3)cc2C1=Cc1ccc2ccccc2c1O [10718/E04]	–	15.1%
O=C1Nc2c(Br)cc(Br)cc2C1=Cc1cc(Cl)cc(Cl)c1O [10734/A03]	22.3%	10.1%
Cc1c(Br)ccc2c1C(=Cc1ccc([N+](=O)[O-])cc1)C(=O)N2 [10734/C06]	-0.2%	-1.7%
CCOc1cccc(C=C2C(=O)Nc3ccc(I)cc32)c1O [10734/B02]	-2.9%	8.5%
COc1cc(Br)cc(C=C2C(=O)Nc3ccc(S(=O)(=O)Nc4ccc(C(F)(F)F)cc4)cc32)c1O [10733/E08]	75.2%	-5.1%
O=C1Nc2c(Br)cc(Br)cc2C1=Cc1cc(Cl)ccc1O [10734/A04]	11.7%	0.6%
COc1c(O)ccc(C=C2C(=O)Nc3ccc(S(=O)(=O)Nc4ccc(C(F)(F)F)cc4)cc32)c1[N+](=O)[O-] [10733/E11]	15.9%	5.5%
COC(=O)c1[nH]c(C)c(C=C2C(=O)Nc3ccc(S(=O)(=O)Nc4ccc(C(F)(F)F)cc4)cc32)c1C(=O)OC [10718/E07]	–	15.6%
CC(C)(C)c1cc(C=C2C(=O)Nc3ccc(S(=O)(=O)N4CCOCC4)cc32)cc(C(C)(C)C)c1OCc1ccccc1 [10733/F05]	-25.1%	26.2%
Cc1c(Br)ccc2c1C(=Cc1cc(Br)cc(Br)c1O)C(=O)N2 [10734/C07]	32.0%	-2.7%
COc1c(C(C)(C)C)cc(C=C2C(=O)Nc3ccc(S(=O)(=O)Nc4ccc(C(F)(F)F)cc4)cc32)cc1C(C)(C)C [10733/E04]	-13.7%	2.1%
Cc1c(O)ccc(C=C2C(=O)Nc3ccc(S(=O)(=O)Nc4ccc(C(F)(F)F)cc4)cc32)c1O [10718/E09]	–	0.9%
Cc1[nH]c(C=C2C(=O)Nc3c(Br)cc(Br)cc32)c(Br)c1Br [10717/A11]	–	-5.8%
CCOC(=O)c1cc(C=C2C(=O)Nc3ccc(S(=O)(=O)Nc4ccc(C(F)(F)F)cc4)cc32)oc1C [10718/E06]	–	15.4%
